Assay results: US20250204553A1, “FEED AND METHODS FOR CONTROLLING HEARTWORM INFECTIONS IN A MAMMAL” (In the Bowl Animal Health, Inc., priority 2022, published 2025)

Key:
[1] = in vivo; cited from earlier work
Dirofilaria immitis [2] = assay: Efficacy of moxidectin administered per os to dogs for treatment and control of Dirofilaria immitis; type: in vivo; conditions: all 12 dogs; daily oral 0.8 μg/kg and 1.6 μg/kg up to Day 179; inoculated with 50 L3 D. immitis on Day -28 or Day 0; counted on or after Day 180; expected result
Dirofilaria immitis [3] = assay: Efficacy of monepantel administered per os to dogs for treatment and control of Dirofilaria immitis; type: in vivo; conditions: all 12 dogs; daily oral 0.083 mg/kg and 0.83 mg/kg up to Day 179; inoculated with 50 L3 D. immitis on Day -28 or Day 0; counted on or after Day 180; expected result

For CO/N=C1\C[C@]2(C[C@@H]3C[C@@H](C/C=C(\C)C[C@@H](C)/C=C/C=C4\CO[C@@H]5[C@H](O)C(C)=C[C@@H](C(=O)O3)[C@]45O)O2)O[C@H](/C(C)=C/C(C)C)[C@H]1C [moxidectin], the terminal half-life [1] is listed as “approximately 13.9 days” and the heartworms recovered (Dirofilaria immitis [2]) is listed as 0.

For ivermectin, the terminal half-life [1] is listed as 43.2 h.

In the case of C[C@](C#N)(COc1cc(C#N)ccc1C(F)(F)F)NC(=O)c1ccc(SC(F)(F)F)cc1 [monepantel, N-[(2S)-2-cyano-1-[5-cyano-2-(trifluoromethyl)phenoxy]propan-2-yl]-4-(trifluoromethylsulfanyl)benzamide], the heartworms recovered (Dirofilaria immitis [3]) is reported as 0.
